Measurements published in patent US6664214B1, “Uracil compounds and use thereof” (Sumitomo Chemical Company, Limited, priority 1999, dated 2003).

Experiments:
Parameters in all cases: key: 0: little difference in the degree of germination or growth between the treated plants and the untreated plants at the time of examination; 10: the treated plants died completely or their germination or growth was completely inhibited
ivyleaf morningglory [1] = assay: Test Example 3: foliar treatment on upland field (Table 4); assay type: in vivo, Ipomoea hederacea; conditions: 125 g/ha active ingredient, examined 16 days after application, index 0-10
Procedure: (§1) In the examples, the compounds are identified by the Compound Numbers as in Tables 1 to 3. […] A cylindrical plastic pot having a diameter of 10 cm and a depth of 10 cm was filled with soil and seeded with ivyleaf momingglory, velvetleaf and barnyardgrass. These test plants were grown in a greenhouse for 10 days. Then each of compounds listed below was formulated into an emulsifiable concentrate according to Formulation Example 2 and then diluted to the prescribed amount with water containing a spreading agent and the dilution was uniformly sprayed over the foliage of the test plants with sprayer at a rate of 1000 liters per hectare. After the application, the test plants were grown in the greenhouse for 16 days, and the herbicidal activity were determined.

velvetleaf [2] = assay: as above; assay type: in vivo, Abutilon theophrasti; conditions: 125 g/ha active ingredient, examined 16 days after application, index 0-10
Procedure: as §1

barnyardgrass [3] = assay: as above; assay type: in vivo, Echinochloa crus-galli; conditions: 125 g/ha active ingredient, examined 16 days after application, index 0-10
Procedure: as §1

ivyleaf morningglory [4] = assay: Test Example 4: soil surface treatment on upland field (Table 5); assay type: in vivo, Ipomoea hederacea; conditions: 500 g/ha active ingredient, examined 12 days after application, index 0-10
Text: (§2) In the examples, the compounds are identified by the Compound Numbers as in Tables 1 to 3. […] A cylindrical plastic pot having a diameter of 10 cm and a depth of 10 cm was filled with soil and seeded ivyleaf morningglory, velvetleaf and barnyardgrass. Then each of compounds listed below was formulated into an emulsifiable concentrate according to Formulation Example 2 and then diluted to the prescribed amount with water and dilution was uniformly sprayed over the surface of the soil with sprayer at the rate of 1000 liters per hectare. After the application, the test plants were grown in a greenhouse for 12 days, and the herbicidal activity was examined.

velvetleaf [5] = assay: as above; assay type: in vivo, Abutilon theophrasti; conditions: 500 g/ha active ingredient, examined 12 days after application, index 0-10
Text: as §2

barnyardgrass [6] = assay: as above; assay type: in vivo, Echinochloa crus-galli; conditions: 500 g/ha active ingredient, examined 12 days after application, index 0-10
Text: as §2

large crabgrass = assay: Test Example 5: foliar treatment on upland field (Table 6); assay type: in vivo, Digitaria sanguinalis; conditions: 125 g/ha, 19 days after application, index 0 to 10
Procedure: In the examples, the compounds are identified by the Compound Numbers as in Tables 1 to 3. […] A pot for plug seedlings seeded with large crabgrass. The test plant was grown in a greenhouse for 14 days, then transplanted into a plastic pot having an area of 17×12 cm^2 and a depth of 7 cm, and further the test plants were grown in the greenhouse for 8 days. Then each of compounds listed below was formulated into an emulsifiable concentrate according to Formulation Example 2 and then diluted to the prescribed amount with water containing a spreading agent and the dilution was uniformly sprayed over the foliage of the test plants with sprayer at a rate of 1000 liters per hectare. After the application, the test plants were grown in the greenhouse for 19 days, and the herbicidal activity were determined.

## CCOC(=O)C(C)Oc1ccc(COc2cc(-n3c(=O)cc(C(F)(F)F)n(C)c3=O)c(F)cc2Cl)cc1 (stereo not drawn) [Compound 1-2, Ethyl 2-[4-({2-chloro-4-fluoro-5-[3-methyl-2,6-dioxo-4-(trifluoromethyl)-1,2,3,6-tetrahydropyrimidine-1-yl]phenoxy}methyl)phenoxy]propionate]
Ivyleaf morningglory [1]
  Herbicidal effect Ivyleaf morningglory: 10
Velvetleaf [2]
  Herbicidal effect Velvetleaf: 10
Barnyardgrass [3]
  Herbicidal effect Barnyardgrass: 10
Ivyleaf morningglory [4]
  Herbicidal effect Ivyleaf morningglory: 10
Velvetleaf [5]
  Herbicidal effect Velvetleaf: 10
Barnyardgrass [6]
  Herbicidal effect Barnyardgrass: 10
Large crabgrass
  Herbicidal effect Large crabgrass: 10

## COC(=O)C(C)Oc1ccc(C(C)Oc2cc(-n3c(=O)cc(C(F)(F)F)n(C)c3=O)c(F)cc2Cl)cc1 (stereo not drawn) [Compound 1-21, Methyl 2-[4-(1-{2-chloro-4-fluoro-5-[3-methyl-2,6-dioxo-4-(trifluoromethyl)-1,2,3,6-tetrahydropyrimidine-1-yl]phenoxy}ethyl)phenoxy]propionate]
Ivyleaf morningglory [1]
  Herbicidal effect Ivyleaf morningglory: 10
Velvetleaf [2]
  Herbicidal effect Velvetleaf: 10
Barnyardgrass [3]
  Herbicidal effect Barnyardgrass: 10
Ivyleaf morningglory [4]
  Herbicidal effect Ivyleaf morningglory: 10
Velvetleaf [5]
  Herbicidal effect Velvetleaf: 10
Barnyardgrass [6]
  Herbicidal effect Barnyardgrass: 10
Large crabgrass
  Herbicidal effect Large crabgrass: 10

## CCOC(=O)C(C)Oc1ccc(COc2cc(-n3c(=O)cc(C(F)(F)F)n(C)c3=O)c(F)cc2Cl)cc1Cl (stereo not drawn) [Compound 1-42, Ethyl 2-[2-chloro-4-({2-chloro-4-fluoro-5-[3-methyl-2,6-dioxo-4-(trifluoromethyl)-1,2,3,6-tetrahydropyrimidine-1-yl]phenoxy}methyl)phenoxy]propionate]
Ivyleaf morningglory [1]
  Herbicidal effect Ivyleaf morningglory: 10
Velvetleaf [2]
  Herbicidal effect Velvetleaf: 10
Barnyardgrass [3]
  Herbicidal effect Barnyardgrass: 10
Ivyleaf morningglory [4]
  Herbicidal effect Ivyleaf morningglory: 10
Velvetleaf [5]
  Herbicidal effect Velvetleaf: 10
Barnyardgrass [6]
  Herbicidal effect Barnyardgrass: 8
Large crabgrass
  Herbicidal effect Large crabgrass: 10

## COC(=O)C(C)Oc1ccc(COc2cc(-n3c(=O)cc(C(F)(F)F)n(C)c3=O)c(F)cc2Cl)cc1OC (stereo not drawn) [Compound 1-61, Methyl 2-[4-({2-chloro-4-fluoro-5-[3-methyl-2,6-dioxo-4-(trifluoromethyl)-1,2,3,6-tetrahydropyrimidine-1-yl]phenoxy}methyl)-2-methoxyphenoxy]propionate]
Ivyleaf morningglory [1]
  Herbicidal effect Ivyleaf morningglory: 10
Velvetleaf [2]
  Herbicidal effect Velvetleaf: 10
Barnyardgrass [3]
  Herbicidal effect Barnyardgrass: 10
Ivyleaf morningglory [4]
  Herbicidal effect Ivyleaf morningglory: 10
Velvetleaf [5]
  Herbicidal effect Velvetleaf: 10
Barnyardgrass [6]
  Herbicidal effect Barnyardgrass: 10
Large crabgrass
  Herbicidal effect Large crabgrass: 10

## COC(=O)C(C)Oc1ccc(COc2cc(-n3c(=O)cc(C(F)(F)F)n(C)c3=O)c(F)cc2Cl)cc1C (stereo not drawn) [Compound 1-101, Methyl 2-[4-({2-chloro-4-fluoro-5-[3-methyl-2,6-dioxo-4-(trifluoromethyl)-1,2,3,6-tetrahydropyrimidine-1-yl]phenoxy}methyl)-2-methylphenoxy]propionate]
Ivyleaf morningglory [1]
  Herbicidal effect Ivyleaf morningglory: 10
Velvetleaf [2]
  Herbicidal effect Velvetleaf: 10
Barnyardgrass [3]
  Herbicidal effect Barnyardgrass: 10
Ivyleaf morningglory [4]
  Herbicidal effect Ivyleaf morningglory: 10
Velvetleaf [5]
  Herbicidal effect Velvetleaf: 10
Barnyardgrass [6]
  Herbicidal effect Barnyardgrass: 10
Large crabgrass
  Herbicidal effect Large crabgrass: 10

## COC(=O)C(C)Oc1c(Br)cc(COc2cc(-n3c(=O)cc(C(F)(F)F)n(C)c3=O)c(F)cc2Cl)cc1OC (stereo not drawn) [Compound 1-161, Methyl 2-[2-bromo-4-({2-chloro-4-fluoro-5-[3-methyl-2,6-dioxo-4-(trifluoromethyl)-1,2,3,6-tetrahydropyrimidine-1-yl]phenoxy}methyl)-6-methoxyphenoxy]propionate]
Ivyleaf morningglory [1]
  Herbicidal effect Ivyleaf morningglory: 10
Velvetleaf [2]
  Herbicidal effect Velvetleaf: 10
Barnyardgrass [3]
  Herbicidal effect Barnyardgrass: 8
Ivyleaf morningglory [4]
  Herbicidal effect Ivyleaf morningglory: 7
Velvetleaf [5]
  Herbicidal effect Velvetleaf: 10
Barnyardgrass [6]
  Herbicidal effect Barnyardgrass: 4
Large crabgrass
  Herbicidal effect Large crabgrass: 10

## CCC(Oc1cc(-n2c(=O)cc(C(F)(F)F)n(C)c2=O)c(F)cc1Cl)c1ccc(OC(C)C(=O)OC)cc1 (stereo not drawn) [Compound 1-213, Methyl 2-[4-(1-{2-chloro-4-fluoro-5-[3-methyl-2,6-dioxo-4-(trifluoromethyl)-1,2,3,6-tetrahydropyrimidine-1-yl]phenoxy}propyl)phenoxy]propionate]
Ivyleaf morningglory [1]
  Herbicidal effect Ivyleaf morningglory: 10
Velvetleaf [2]
  Herbicidal effect Velvetleaf: 10
Barnyardgrass [3]
  Herbicidal effect Barnyardgrass: 10
Ivyleaf morningglory [4]
  Herbicidal effect Ivyleaf morningglory: 10
Velvetleaf [5]
  Herbicidal effect Velvetleaf: 10
Barnyardgrass [6]
  Herbicidal effect Barnyardgrass: 10
Large crabgrass
  Herbicidal effect Large crabgrass: 10

## COC(=O)C(C)Oc1ccc(C(C#N)Oc2cc(-n3c(=O)cc(C(F)(F)F)n(C)c3=O)c(F)cc2Cl)cc1 (stereo not drawn) [Compound 1-226, Methyl 2-{4-[{2-chloro-4-fluoro-5-[3-methyl-2,6-dioxo-4-(trifluoromethyl)-1,2,3,6-tetrahydropyrimidine-1-yl]phenoxy}(cyano)methyl]phenoxy}propionate]
Ivyleaf morningglory [1]
  Herbicidal effect Ivyleaf morningglory: 10
Velvetleaf [2]
  Herbicidal effect Velvetleaf: 10
Barnyardgrass [3]
  Herbicidal effect Barnyardgrass: 10
Ivyleaf morningglory [4]
  Herbicidal effect Ivyleaf morningglory: 10
Velvetleaf [5]
  Herbicidal effect Velvetleaf: 10
Barnyardgrass [6]
  Herbicidal effect Barnyardgrass: 9
Large crabgrass
  Herbicidal effect Large crabgrass: 10

## COC(=O)C(C)Oc1c(OC)cc(COc2cc(-n3c(=O)cc(C(F)(F)F)n(C)c3=O)c(F)cc2Cl)cc1OC (stereo not drawn) [Compound 1-238, Methyl 2-[4-({2-chloro-4-fluoro-5-[3-methyl-2,6-dioxo-4-(trifluoromethyl)-1,2,3,6-tetrahydropyrimidine-1-yl]phenoxy}methyl)-2,6-dimethoxyphenoxy]propionate]
Ivyleaf morningglory [1]
  Herbicidal effect Ivyleaf morningglory: 10
Velvetleaf [2]
  Herbicidal effect Velvetleaf: 10
Barnyardgrass [3]
  Herbicidal effect Barnyardgrass: 9
Ivyleaf morningglory [4]
  Herbicidal effect Ivyleaf morningglory: 10
Velvetleaf [5]
  Herbicidal effect Velvetleaf: 10
Barnyardgrass [6]
  Herbicidal effect Barnyardgrass: 8
Large crabgrass
  Herbicidal effect Large crabgrass: 10

## COC(=O)C(C)Oc1ccc(COc2cc(-n3c(=O)cc(C(F)(F)F)n(C)c3=O)c(F)cc2Cl)c(F)c1 (stereo not drawn) [Compound 1-242, Methyl 2-[4-({2-chloro-4-fluoro-5-[3-methyl-2,6-dioxo-4-(trifluoromethyl)-1,2,3,6-tetrahydropyrimidine-1-yl]phenoxy}methyl)-3-fluorophenoxy]propionate]
Ivyleaf morningglory [1]
  Herbicidal effect Ivyleaf morningglory: 10
Velvetleaf [2]
  Herbicidal effect Velvetleaf: 10
Barnyardgrass [3]
  Herbicidal effect Barnyardgrass: 10
Ivyleaf morningglory [4]
  Herbicidal effect Ivyleaf morningglory: 10
Velvetleaf [5]
  Herbicidal effect Velvetleaf: 10
Barnyardgrass [6]
  Herbicidal effect Barnyardgrass: 10
Large crabgrass
  Herbicidal effect Large crabgrass: 10

## COC(=O)C(C)Oc1ccc(C(Oc2cc(-n3c(=O)cc(C(F)(F)F)n(C)c3=O)c(F)cc2Cl)c2ccccc2)cc1 (stereo not drawn) [Compound 1-246, Methyl 2-[4-({2-chloro-4-fluoro-5-[3-methyl-2,6-dioxo-4-(trifluoromethyl)-1,2,3,6-tetrahydropyrimidine-1-yl]phenoxy}(phenyl)methyl)phenoxy]propionate]
Ivyleaf morningglory [1]
  Herbicidal effect Ivyleaf morningglory: 10
Velvetleaf [2]
  Herbicidal effect Velvetleaf: 10
Barnyardgrass [3]
  Herbicidal effect Barnyardgrass: 8
Ivyleaf morningglory [4]
  Herbicidal effect Ivyleaf morningglory: 8
Velvetleaf [5]
  Herbicidal effect Velvetleaf: 10
Barnyardgrass [6]
  Herbicidal effect Barnyardgrass: 10
Large crabgrass
  Herbicidal effect Large crabgrass: 10

## COC(=O)COc1cccc(COc2cc(-n3c(=O)cc(C(F)(F)F)n(C)c3=O)c(F)cc2Cl)c1 [Compound 2-11, Methyl 2-[3-({2-chloro-4-fluoro-5-[3-methyl-2,6-dioxo-4-(trifluoromethyl)-1,2,3,6-tetrahydropyrimidine-1-yl]phenoxy}methyl)phenoxy]acetate]
Ivyleaf morningglory [1]
  Herbicidal effect Ivyleaf morningglory: 10
Velvetleaf [2]
  Herbicidal effect Velvetleaf: 10
Barnyardgrass [3]
  Herbicidal effect Barnyardgrass: 8
Ivyleaf morningglory [4]
  Herbicidal effect Ivyleaf morningglory: 10
Velvetleaf [5]
  Herbicidal effect Velvetleaf: 10
Barnyardgrass [6]
  Herbicidal effect Barnyardgrass: 9
Large crabgrass
  Herbicidal effect Large crabgrass: 10
